For the compound `COc1cc(NCc2ccc3nc(N)nc(N)c3c2C)cc(OC)c1OC`, the melting point was 216 °C. The figure for `Cc1ccccc1C(=O)Cc1ccc(C(N)=O)cc1` is 187 to 188 °C; for `Cn1cnc(C(=O)Oc2c(F)c(F)c(F)c(F)c2F)c1` it is 131 to 132 °C; for `CC(C)(C)OC(=O)NC(Cc1ccc2ccccc2c1)C(=O)O` (centres undefined) it is 90 °C. As for `CCC(C)c1ccc(O)cc1` (centres undefined), the melting point worked out at 61.5 °C. The figure for `CC(C)(C(=O)N1C(=O)C=CC1(C)C)C(=O)N1C(=O)C=CC1(C)C` is 128 °C. The compound `O=[N+]([O-])c1cccnc1N1CCOCC1` came in with a melting point of 89 to 91 °C. As for `CNC(=O)ON=CC(C)(C)S(C)(=O)=O`, the figure is 141 °C; as for `CC1CCC(C(C)C)C(OC(=O)C2=CCC(C(=O)OC3CC(C)CCC3C(C)C)CC2)C1` (centres undefined), 125 °C. The figure for `CN(C)C(C)(C)CO` is 19 °C; for `CC(=O)Oc1cccc(O)c1` it is 55 °C; for `O=C(Cl)c1sccc1Br` it is 65 to 67 °C.

`O=C(Nc1ccccc1)OCC1(COC(=O)Nc2ccccc2)CCCC1`: the melting point is 152 °C. Take `CC1(C)SC2C(NC(=O)C3(N)CCCCC3)C(=O)N2C1C(=O)O` (centres undefined): the melting point turned out to be 182 °C. For `Cc1ccc2c(ccc3ccccc32)c1`, the melting point was determined as 58 °C. The figure for `Nc1c[nH]c(=O)[nH]c1=O` is 300 °C; for `CC(C)CC(NC(=O)C(O)C(N)Cc1ccccc1)C(=O)O` (centres undefined) it is 233 °C; for `O=C(O)c1cc2cc(Br)ccc2o1` it is 257 to 260 °C.

The compound `O=C(O)c1onc2ccccc12` had a melting point of 185 °C. The figure for `CC1(C)C(=O)N(Br)C(=O)N1Br` is 187 to 191 °C; for `CCN(CCO)CCO` it is -50 °C; for `OCC1OC1c1ccccc1` (centres undefined) it is 51 to 53 °C.

As to `CC(=O)Nc1ccccc1CCNC(=O)c1ccc2ccccc2c1O`, the melting point lay within 225 to 227 °C. As for `O=[N+]([O-])c1ccc(C(O)CNCc2ccccc2)cc1` (centres undefined), the figure is 133 to 134 °C; as for `C=COCC(C)C`, -112 °C. The compound `CC(=O)c1ccc(O)c(C(F)(F)F)c1` registered a melting point of 176 °C. As for `COc1ccc(C2Sc3ccccc3NC(=O)C2O)cc1` (centres undefined), the figure is 203 to 207 °C; as for `CCCCCCCC(=O)OCCCCCC`, -30.6 °C.

`Nc1c(Br)cc(Br)cc1C(O)c1ccccc1` (centres undefined): the melting point worked out at 152 °C. With `CCCCCCCCCCCCCCCCCc1ccccc1`, the melting point is 32 °C. As for `CC(=O)OC1CC2C(C)(C)CCCC2(C)C2=C1C(=O)C(C(C)C)=C(O)C2=O` (centres undefined), the figure is 213 °C; as for `COC(=O)C1CC2(C(=O)OC)C=CC1C2` (centres undefined), 38 °C; as for `O=C1CCCCC1C1=CCCCC1` (centres undefined), -78 °C. As for `CC(=O)OCCOCCOC(C)=O`, the melting point was determined as 18 °C. As for `OCc1ccccc1O[C@@H]1O[C@H](CO)[C@@H](O)[C@H](O)[C@H]1O`, the figure is 198 to 200 °C. The figure for `O=C(O)C1CSC(c2cccnc2)=N1` (centres undefined) is 180 to 181 °C; for `NCCNCCNCCN` it is -35 °C. The figure for `Cc1ccccc1C(N)=S` is 142 to 143 °C; for `CO[Si](OC)(OC)OC` it is 4.5 °C; for `CCC(C(=O)C=Cc1ccccc1)C(=O)OC1CC(C)CCC1C(C)C` (centres undefined) it is 135 °C. As for `C=C(C)CCCCCCCCCCCCCC`, the melting point was found to be 2 °C. The figure for `C=Cc1ccc(C)cc1` is -34 °C; for `CC1=NN(c2ccccc2)C(=O)C1C(Br)C1(Br)C(=O)N(c2ccccc2)N=C1C` (centres undefined) it is 307 to 308 °C; for `CN(C)c1ccc(N=Nc2ccc(N)cc2)cc1` it is 189 °C. The figure for `CCOC(=O)C1=C(C)NC(C)=C(C(=O)OCC)C1c1cccc(OC)c1O` is 207 °C.

As to `Cc1nc(N)nc(O)c1Br`, the melting point was in the range of 244 to 246 °C. As to `CC1(C)C2CCC1(C)C(O)C2C(c1ccccc1)c1ccccc1` (centres undefined), the melting point was 171 °C. As for `CN(C)c1nc(=O)n(C2CCCCC2)c(=O)n1C`, the figure is 116 °C; as for `c1ccc(-c2cc3ccccc3cn2)cc1`, 103 °C. `O=C(c1ccccc1)N1CCCCC1` displayed a melting point of 49 °C. Take `FC(F)(F)c1cc(Cl)ccc1I`: the melting point lay within 29 to 31 °C. The figure for `Nc1cc(N)cc(C(=O)O)c1` is 235 °C; for `COc1ccc(C(N)=S)cc1` it is 148 to 152 °C; for `O=Cc1ccsc1` it is -30 °C. The figure for `COc1ccc2c(c1)CC1(CCC(c3ccc(C(C)(C)C)cc3)CC1)C2=O` (centres undefined) is 166 to 167 °C.

Compound `c1ccc(N2CCN(c3ccccc3)CC2)cc1` registered a melting point of 165 °C. Take `CC(C)(C)OC(=O)N1CCN(Cc2cccc([N+](=O)[O-])c2)CC1`: the melting point lay within 84 to 85 °C. In turn, `OCc1nccs1` had a melting point of 62 to 64 °C. Take `O=C(NCO)NCO`: the melting point was 126 °C.

For `Fc1ccc(Br)cc1Br`, the melting point was 69 °C. As to `O=C(OC1C(=O)OC(=O)C1OC(=O)c1ccccc1)c1ccccc1` (centres undefined), the melting point amounted to 174 °C. The figure for `CCn1c(=O)c(C=C2C(=O)NN=C2c2c(O)c3ccccc3n(C)c2=O)c(O)c2ccccc21` is 295 °C. As for `CC1=C(Cl)CCP(=O)(c2ccccc2)C1` (centres undefined), the figure is 143 °C; as for `COC(=O)c1cnc(S)n1C`, 207 °C; as for `CSc1ccc(I)cc1`, 40 to 42 °C. For the compound `O=C(O)C(F)(F)C(F)(F)C(F)(F)C(F)(F)C(F)(F)C(F)F`, the melting point came out at 34 °C. The compound `COC(C(=O)O)c1ccccc1` (racemic) gave a melting point of 68 to 72 °C. Turning to `CC1C=Cn2c(cc3ccccc3c2=O)C1` (centres undefined), the melting point is 89 °C. As for `CC1(C)CCCCC1=O`, the melting point is -20.5 °C.

The compound `O=C(Cl)c1csc(-c2ccc3c(c2)CCO3)n1` gave a melting point of 133 to 135 °C.

Regarding `Nc1nn2c(C(F)(F)F)cc(-c3cccs3)nc2c1/N=N/c1cccc([N+](=O)[O-])c1`, the melting point is 245 °C. The figure for `O=C(Cl)c1ccccc1` is -1 °C; for `Cc1ccc(OC(=O)C(C)(c2ccccc2)c2ccccc2)cc1` it is 111 °C; for `NCc1ccc(S(N)(=O)=O)cc1` it is 151 °C. The figure for `Fc1c(F)c(F)c(P(c2c(F)c(F)c(F)c(F)c2F)c2c(F)c(F)c(F)c(F)c2F)c(F)c1F` is 117 °C; for `CC(C)(O)CCc1ccccc1` it is 24.5 °C.

`N#C/C(=C/c1ccco1)c1nc(-c2ccc(Br)cc2)cs1` came in with a melting point of 174 °C. As for `C#CCCCCCCCCC(=O)O`, the figure is 42 °C; as for `COC(=O)c1scc(C)c1N`, 86 to 87 °C. `Fc1c(F)c(F)c(CBr)c(F)c1F` gave a melting point of 19 °C. The figure for `Cc1cc(Br)cc(C)c1N` is 50 °C; for `Cn1nccc1N` it is 73 to 76 °C. As for `Cc1nc(-c2ccc(-c3ccccc3)cc2)cs1`, the figure is 113 to 118 °C; as for `CC1C=CC(C2CC(=O)OC2=O)C12CC2` (centres undefined), 98 °C; as for `CCC(=O)c1cccc(C(F)(F)F)c1`, 19 °C. `CN(C)CCOCCN(C)C` came in with a melting point of -80 °C. The figure for `c1ccc(C2OCCCO2)cc1` is 41 °C; for `O=c1ccnc[nH]1` it is 163 to 168 °C; for `N#CCC(N)=C(C#N)C#N` it is 172 °C. As for `CSC(SC)SC`, the figure is 16 °C; as for `COc1cc(-c2nnc3n2N=C(c2ccccc2)CS3)cc(OC)c1OC`, 197 °C; as for `COc1ccccc1C(=O)c1cc2c(cc1Br)OCCO2`, 95 to 97 °C. As to `COc1c2ccoc2cc2oc(C)cc(=O)c12`, the melting point came out at 144 °C. As for `Cc1ccc2c(c1)C(=O)c1ccc(C)cc1C2=O`, the figure is 240 °C; as for `COc1cc(C)nc(-n2nc(C)cc2OC)n1`, 91 °C; as for `O=[N+]([O-])c1ccc(Cl)cc1CO`, 77 to 82 °C. The figure for `Cc1ccc(C(=O)O)cc1F` is 170 to 175 °C. On to `COc1ccc(-c2cc(=O)c3c(O)c(OC)c(OC)cc3o2)cc1O`, for which the melting point worked out at 191 °C.

Compound `CCCn1c(C(=O)O)cc2c(=O)n(C)c(=O)n(C)c21` returned a melting point of 139 °C.

`CCOC(=O)c1cccnc1-c1ncccc1C(=O)OCC` gave a melting point of 90 °C. Consider `CCCCOC(=O)C(=O)OCCCC`, for which the melting point is -29 °C. As for `O=S(=O)(Cl)c1c(Cl)cc(C(F)(F)F)cc1Cl`, the figure is 48 °C; as for `O=C1Cc2cc(S(=O)(=O)Cl)ccc2N1`, 160 °C; as for `OC(c1ccc(F)cc1)(c1ccc(F)cc1)c1ccc(F)cc1`, 92 °C.

`FC(F)(F)OC(F)(I)C(F)(F)F` (centres undefined) displayed a melting point of 44 °C.

In turn, `CCC1(CC)COC(=O)NC1=O` returned a melting point of 97.5 °C. `Cc1cc(C)c(C2(C)CC(C(=NO)c3cc4cc(Br)ccc4o3)C2)c(C)c1` (centres undefined): the melting point was 221 to 222 °C. In turn, `Cc1nc2sc3c(c2c(=O)n1NC(=O)c1ccccc1Cl)CCCC3` showed a melting point of 244 to 246 °C. As for `O=C(O)c1cc(Cl)ccc1C(F)(F)F`, the figure is 86 °C; as for `CCC(=O)c1ccco1`, 28 °C. `ON=Cc1ccc2ccccc2c1`: the melting point is 169 °C.

The compound `O=CC1CC=CCC1` (centres undefined) returned a melting point of 2 °C. As for `COP(=O)(OC)OC`, the figure is -46 °C; as for `CC1CCCCC1NC(=O)Nc1ccccc1` (centres undefined), 136 °C.

(Values after a melting point compilation (Tetko et al.).)
